Measured values: patent publication US11357786B2, “Synthetic disugar hydrocarbons as natural analogs to control microbial behaviors” (Syracuse University, priority 2014, dated 2022)
Read-outs that look alike come from different tables or passages of the source.

Experiments:
1-day old PAO1 biofilm = test: Crystal violet assay for dispersion of 1-day old biofilm, DSHs (Examples 2 and 4); format: cell-based, Pseudomonas aeruginosa
Method: The effect that DSHs have on the adhesion of PAO1-EGFP on polystyrene surface (microtiter plate) was also examined. PAO1-EGFP is a P. aeruginosa strain that constitutively expresses green fluorescent protein. In the adhesion assays, PAO1-EGFP was grown in microtiter plate for 24-hours in LB-media with (160 μM) or without DSHs. After 24-hours, the fluorescent signal obtained from surface adhered PAO1-EGFP was measured. Percent reduction in fluorescence was calculated by comparing fluorescent signal from PAO1-EGFP grown in LB-media with the signal from wells that had DSHs (FIG. 29A). To study the effect of DSHs on biofilm formation, Pseudomonas aeruginosa (PAO1) was grown in LB-media with (160 μM) or without DSHs at 37° C. under static conditions within wells of microtiter plates. After 24 hours, the surface attached biofilms adhering to the bottom of the wells were stained with crystal-violet dye and the biofilm was quantified by measuring absorbance at 600 nm (OD600). The percent inhibition was calculated by comparing biofilm content of wells with no added agents (control) with the biofilm content from wells that had 160 μM of DSHs (FIG. 29A). Similar to inhibition, the surface attached biofilm after dispersion with DSHs was quantified with crystal-violet staining and absorbance measurement at 600 nm, except that for dispersion, biofilm was first grown for 1 day in just LB-media without any DSHs after which DSHs were added and plates were incubated for additional 24 hours followed by quantification (FIG. 29B).
Crystal violet based assay for quantifying dispersion of 1-day old PAO1 biofilms were Plate for set up similar to inhibition assay with a slight modification. Wells of the micro-titer plate was inoculated with (200 μL) bacterial subculture (PAO1 subculture OD600 ˜0.1). The plates were incubated at 37° C. for 24 hours to allow biofilm formation. After 24 hours, bacterial culture was gently pipetted out and appropriate volume of DSH were added followed by addition of fresh LB medium (200 μL). The microtiter plate was incubated for an additional 24 hours at 37° C., following which, similar to work up of inhibition assay, culture was removed, wells were washed and CV-dye was introduced, followed by washing and destaining with 30% AcOH solution in water and quantification at 600 nm. Here again, only the surface attached biofilm dispersed was reported by comparing wells with DSHs with wells with no agent.
Dose dependence assays for biofilm inhibition and dispersion. […] Both for biofilm inhibition and dispersion, predetermined volumes of DSH stocks were added to the assigned wells to span a concentration range between 0.5 μM-170 μM. Percent biofilm inhibition of dispersion was calculated by comparing to wells with no agent. The percent biofilm inhibition or dispersion was plotted versus concentration of DSHs. The linear values were logarithmically curve fitted using equation […]. The half maximal inhibitory concentration for both biofilm inhibition and dispersion (IC50 and DC50) were thus obtained.

[1] = tested on: las quorum sensing system; test: las quorum sensing gene reporter assay (plasI-LVAgfp); format: cell-based, Pseudomonas aeruginosa; conditions: natural autoinducers present
From the text: The ability of the maltoside derivatives to antagonize the two quorum sensing circuits las and/or rhl of P. aeruginosa was investigated by using two reporter strains (PAO1/plasI-LVAgfp, PAO1/prhlI-LVAgfp). These reporter strains produce natural AHL signals, and binding of such signal molecules to the Lux-type receptor proteins ([…]) activates the expression of green fluorescent protein (GFP) encoded by the plasmid.
One of the recent approach for a nonmicrobicidal control of biofilm aims to develop agents that disrupt bacterial cell-to-cell communication by acting as mimics to the natural molecules (autoinducer) that bind […], which are encoded by las and rhl gene. The binding of these mimics with lasR and rhlR proteins either activates or represses the expression of lasI or rhlI.^6 In gene reporter assay, the expression of lasI and rhlI proteins is quantified by measuring expression of green fluorescent protein (GFP) fused to lasI and rhlI genes.^5 Two reporter strains of Pseudomonas aeruginosa (PAO1/plasI_LVAgfp and PAO1/prhlI_LVAgfp) express green fluorescence protein on activation of las or rhl quorum sensing system. The activation or repression of las or rhl quorum sensing system in PA was tested by various DSHs.
Strains PAO1/plasI-LVAgfp and PAO1/prhlI-LVAgfp were grown overnight in LB-media that was supplemented with 300 μg/mL carbenicillin and after 16 hours, the bacteria were sub cultured in LB media (supplemented with 300 μg/mL carbenicillin) to OD600 as 0.01. The OD600 was allowed to reach 0.1 and then 200 μL of culture was aliquoted into the wells of 96-well microtiter plate. DSHs were then added to assigned wells at two different concentrations (85 μM and 160 μM). No agent was added to the well for positive control. The plates then incubated at 37° C. for 24 h in a rotary shaking incubator (250 rpm). The culture from each well was then transferred to corresponding wells of a black walled flat-bottom, 96-well plate (μClear, Greiner-One 655096). The fluorescence and OD absorbance in each well was measured by Synergy 2 multi-mode microplate reader with aGen5 data analysis software. […] Fluorescence was measured at an excitation wavelength of 500 nm and an emission wavelength of 540 nm.
For an antagonist assay, overnight culture of P. aeruginosa PAO1/plasI-LVAgfp (las system) or PAO1/prhlI-LVAgfp (rhl system) in LB broth (supplemented with 300 μg/mL carbenicillin) was grown from a single colony on a LB agar plate supplemented with 300 μg/mL carbenicillin. […] The fluorescence and OD absorbance in each well was measured by Synergy 2 multi-mode microplate reader with Gen5 data analysis software. […] Fluorescence was measured at an excitation wavelength of 500 nm and an emission wavelength of 540 nm. […]

[2] = Example 2, FIG. 20, read-out: Biofilm dispersion DC50
[3] = Example 4, FIG. 31, read-out: Half-maximal dispersion concentration (DC50)

Structure (SMILES)	DC50 (1-day old PAO1 biofilm; [2])	DC50 (1-day old PAO1 biofilm; [3])	Change of GFP fluorescence, las reporter strain PAO1/plasI-LVAgfp (antagonist assay) [1]	Change of GFP fluorescence, las reporter strain PAO1/plasI-LVAgfp (antagonist assay) ([1]; listed as 13: SFαC)	Change of GFP fluorescence, las reporter strain PAO1/plasI-LVAgfp (antagonist assay) ([1]; listed as 12: SFβC)
CC(C)CCCC(C)CCCC(C)CCO[C@H]1O[C@H](CO)[C@@H](O[C@@H]2O[C@H](CO)[C@@H](O)[C@H](O)[C@H]2O)[C@H](O)[C@H]1O (stereo partly drawn) [SFαC (13), saturated farnesyl-α-cellobioside]	~78.4 µM	~89 µM	neither SFβC (12) nor SFαC (13) caused a significant change in the fluorescence	no significant change in the fluorescence	–
CC(C)CCCC(C)CCCC(C)CCO[C@@H]1O[C@H](CO)[C@@H](O[C@@H]2O[C@H](CO)[C@@H](O)[C@H](O)[C@H]2O)[C@H](O)[C@H]1O (stereo partly drawn) [SFβC (12), saturated famesyl-β-cellobioside]	~36.4 µM	~44 µM	neither SFβC (12) nor SFαC (13) caused a significant change in the fluorescence	–	no significant change in the fluorescence
CC(C)CCCC(C)CCCC(C)CCO[C@@H]1O[C@H](CO)[C@@H](O[C@H]2O[C@H](CO)[C@@H](O)[C@H](O)[C@H]2O)[C@H](O)[C@H]1O (stereo partly drawn) [SFβM (14), saturated farnesyl-β-maltoside]	–	~126 µM	–	–	–
